In patent US10683295B2, “Chiral N-acyl-5,6,7(8-substituted)-tetrahydro-[1,2,4]triazolo[4,3-A]pyrazines as selective NK-3 receptor antagonists, pharmaceutical composition, methods for use in NK-3 receptor mediated disorders and chiral synthesis thereof” (Ogeda SA, priority 2011, dated 2020):

Tested on: luteinizing hormone (LH) plasma levels
Assay: Castrated male rat model, circulating luteinizing hormone (LH)
Format: in vivo
Details: single intravenous 10 mg/kg dose, castrated male Sprague-Dawley rats, 1 hour after dosing
Source text: Castrated Male Rat Model to Assess the Effect of Compound of Invention on Circulating Levels of Luteinizing Hormone (LH).
Thus, a castrated rat model is used to provide a broad index for measurement of LH inhibition as a marker of test compound inhibition of the GnRH signaling pathway.
Castrated adult male Sprague-Dawley (SD) rats (150-175 g) were purchased from Janvier (St Berthevin, France). […] The animals were allowed 2 weeks of postoperative recovery prior to study. Animals were handled on a daily basis. Standard diet and tap water were provided ad libitum. […] On the study day, animals were acclimated to the procedure room for a period of one hour prior to the initiation of the experiment.
Compounds of the invention were formulated as apyrogen water with 90 g/L (2-Hydroxypropyl)-β-CycloDextrin.
After basal sampling (TO) a single dose of compounds of the invention or vehicle was administrated intravenously to rats. Blood was then collected at 60 min post dosing. Blood samples were obtained via tail vein bleed, drawn into EDTA-containing tubes and centrifuged immediately. […] Serum LH levels were determined using radioimmunoassay kit from RIAZEN—Rat LH, Zentech (Liege, Belgium). Baseline was defined as the initial basal blood sample.

Structure (SMILES)	circulating LH levels
Cc1nc(-c2nnc3n2CCN(C(=O)c2ccc(-c4cccs4)cc2)[C@@H]3C)cs1 [Compound 1, (R)-(8-methyl-3-(2-methylthiazol-4-yl)-5,6-dihydro-[1,2,4]triazolo[4,3-a]pyrazin-7(8H)-yl)(4-(thiophen-2-yl)phenyl) methanone]	significantly suppressed
Cc1csc(-c2nnc3n2CCN(C(=O)c2ccc(-c4cccs4)cc2)[C@@H]3C)n1 [Compound 19, (R)-(8-methyl-3-(4-methylthiazol-2-yl)-5,6-dihydro-[1,2,4]triazolo[4,3-a]pyrazin-7(8H)-yl)(4-(thiophen-2-yl)phenyl)methanone]	significantly suppressed
